One assay relates to Escherichia coli. The experiment in a line: Activation of recombinant Escherichia coli HslV expressed in Escherichia coli BL21( DE3) cells using Z-GGL-AMC as substrate by fluorescence analysis.
Assay [1] in a line: Activation of recombinant Escherichia coli HslU C-tail expressed in Escherichia coli BL21( DE3) cells using Z-GGL-AMC as substrate by fluorescence analysis.

Consider `O=C(N/N=C/c1cc(=O)c2ccccc2o1)c1ccccc1`, for which the results for the ED50 (with Escherichia coli; in assay [1]) were 1300 nM and 2600 nM, respectively.

For `O=C(Cn1c(-c2ccccn2)nc2ccccc21)c1ccc([N+](=O)[O-])cc1`, the ED50 with Escherichia coli came to 600 nM; in assay [1], 2600 nM.

With `O=C(Cn1c(-c2ccccn2)nc2ccccc21)c1ccc(O)c(O)c1`, the ED50 turned out to be 600 nM in the assay on Escherichia coli and 2600 nM in assay [1].

Regarding `O=c1c2ccccc2nc(-c2ccc([N+](=O)[O-])cc2)n1/N=C/c1c(O)ccc2ccccc12`, the results for the ED50 (in the assay with Escherichia coli; in assay [1]) were 900 nM and 2600 nM, respectively.

The values above are taken from ChEMBL document CHEMBL2163308, “Small molecule activators of proteasome-related HslV peptidase” (Bioorg Med Chem Lett, 2012).
